Test results taken from patent US20210262029A1, “TREATMENT OF KCNQ2 AND KCNQ3 GAIN OF FUNCTION-ASSOCIATED DISORDERS” (The Trustees of Columbia University in the City of New York, priority 2018, published 2021).

Columns and labels:
KCNQ3 = KCNQ3 (Homo sapiens, UniProt O43525); conditions: homomeric KCNQ3 wild type, CHO cells
Source text: (§1) Variants were introduced in KCNQ3 human cDNA cloned into pcDNA3.1 by QuikChange site-directed mutagenesis (Agilent Technologies, Milan, Italy), as previously described.^12 Channel subunits were expressed in Chinese hamster ovary (CHO) cells by transient transfection using Lipofectamine 2000 (Invitrogen, Carlsbad, Calif.) according to the manufacturer's protocol.^17 A plasmid encoding enhanced green fluorescent protein (Clontech Laboratories, Mountain View, Calif.) was used as a transfection marker; total cDNA in the transfection mixture was kept constant at 4 μg.
(§2) Currents were recorded under whole-cell patch-clamp at room temperature (20-22° C.) 1 to 2 days after transfection as reported.^12 Current densities (expressed in pA/pF) were calculated as peak K^+ currents at 0 mV divided by cell capacitance. To generate conductance-voltage curves, the cells were held at −80 mV, then depolarized for 1.5 seconds from ˜120 to +20 mV in 10 mV increments, followed by an isopotential pulse at 0 mV of 300-millisecond duration. The current values recorded at the beginning of the 0 mV pulse were measured, normalized, and expressed as a function of the preceding voltages. The data were then fit to a Boltzmann distribution of the following form: y=max/[1+exp(V½−V)/k], where V is the test potential, V½ the half-activation potential, and k the slope factor.

KCNQ3 R1Q = KCNQ3 R1Q (Homo sapiens, UniProt O43525, R227Q); conditions: 30 mM TEA; homomeric KCNQ3 R1Q (R227Q); CHO cells
KCNQ3 R1Q, sequence (O43525 whole entry R227Q): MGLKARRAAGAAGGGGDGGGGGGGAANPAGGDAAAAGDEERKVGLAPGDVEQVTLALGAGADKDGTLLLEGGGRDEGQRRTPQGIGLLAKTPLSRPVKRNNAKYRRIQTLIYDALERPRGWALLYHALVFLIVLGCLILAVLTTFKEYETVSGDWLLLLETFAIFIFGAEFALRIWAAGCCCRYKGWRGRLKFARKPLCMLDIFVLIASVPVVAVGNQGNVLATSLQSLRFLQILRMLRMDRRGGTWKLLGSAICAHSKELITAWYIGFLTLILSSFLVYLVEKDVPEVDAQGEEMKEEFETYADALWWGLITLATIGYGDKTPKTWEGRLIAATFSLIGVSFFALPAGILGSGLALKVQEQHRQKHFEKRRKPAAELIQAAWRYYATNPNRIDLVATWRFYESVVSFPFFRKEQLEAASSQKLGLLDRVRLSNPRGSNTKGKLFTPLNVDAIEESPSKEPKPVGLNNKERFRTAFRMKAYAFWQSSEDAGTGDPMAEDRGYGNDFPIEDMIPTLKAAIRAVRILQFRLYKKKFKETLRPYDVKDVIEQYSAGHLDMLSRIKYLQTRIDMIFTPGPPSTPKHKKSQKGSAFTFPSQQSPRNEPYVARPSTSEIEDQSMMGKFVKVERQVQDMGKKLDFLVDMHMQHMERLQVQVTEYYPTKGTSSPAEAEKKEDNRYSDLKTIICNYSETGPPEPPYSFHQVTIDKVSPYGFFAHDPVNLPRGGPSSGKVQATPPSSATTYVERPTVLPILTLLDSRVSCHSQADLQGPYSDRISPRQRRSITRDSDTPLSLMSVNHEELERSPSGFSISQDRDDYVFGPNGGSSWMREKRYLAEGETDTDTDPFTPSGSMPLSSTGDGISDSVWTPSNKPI
Source text: as §1, §2

KCNQ3 R2H = KCNQ3 R2H (Homo sapiens, UniProt O43525, R230H); conditions: 30 mM TEA; homomeric KCNQ3 R2H (R230H); CHO cells
KCNQ3 R2H, sequence (O43525 whole entry R230H): as the sequence (O43525 whole entry R227Q) above, with Q227R, R230H counted along it
Source text: as §1, §2

KCNQ3 R2C = KCNQ3 R2C (Homo sapiens, UniProt O43525, R230C); conditions: 30 mM TEA; homomeric KCNQ3 R2C (R230C); CHO cells
KCNQ3 R2C, sequence (O43525 whole entry R230C): as the sequence (O43525 whole entry R227Q) above, with Q227R, R230C counted along it
Source text: as §1, §2

KCNQ3 R2S = KCNQ3 R2S (Homo sapiens, UniProt O43525, R230S); conditions: 30 mM TEA; homomeric KCNQ3 R2S (R230S); CHO cells
KCNQ3 R2S, sequence (O43525 whole entry R230S): as the sequence (O43525 whole entry R227Q) above, with Q227R, R230S counted along it
Source text: as §1, §2

[1] = system: KCNQ2 + KCNQ3 + KCNQ3 R2C; conditions: KCNQ2 + KCNQ3 + KCNQ3 R2C 1:0.5:0.5, CHO cells
Source text: (§3) To mimic the genetic condition of patients, who carry a single mutant allele, and considering that IKM in adult neurons is mainly formed by tetrameric co-assembly of KCNQ2 and KCNQ3 subunits, we transfected CHO cells with KCNQ2 and KCNQ3 cDNAs in a 1:1 ratio (to mimic the genetic balance of normal individuals), and KCNQ2+KCNQ3+mutant KCNQ3 1:0.5:0.5 ratio (to mimic the genetic balance of affected individuals).
as §1, §2

KCNQ2 + KCNQ3 = KCNQ2 + KCNQ3 (Homo sapiens, UniProt O43525+O43526); conditions: KCNQ2 + KCNQ3 1:1, CHO cells
KCNQ2 + KCNQ3, sequence (O43526 1-844 isoform O43526-3): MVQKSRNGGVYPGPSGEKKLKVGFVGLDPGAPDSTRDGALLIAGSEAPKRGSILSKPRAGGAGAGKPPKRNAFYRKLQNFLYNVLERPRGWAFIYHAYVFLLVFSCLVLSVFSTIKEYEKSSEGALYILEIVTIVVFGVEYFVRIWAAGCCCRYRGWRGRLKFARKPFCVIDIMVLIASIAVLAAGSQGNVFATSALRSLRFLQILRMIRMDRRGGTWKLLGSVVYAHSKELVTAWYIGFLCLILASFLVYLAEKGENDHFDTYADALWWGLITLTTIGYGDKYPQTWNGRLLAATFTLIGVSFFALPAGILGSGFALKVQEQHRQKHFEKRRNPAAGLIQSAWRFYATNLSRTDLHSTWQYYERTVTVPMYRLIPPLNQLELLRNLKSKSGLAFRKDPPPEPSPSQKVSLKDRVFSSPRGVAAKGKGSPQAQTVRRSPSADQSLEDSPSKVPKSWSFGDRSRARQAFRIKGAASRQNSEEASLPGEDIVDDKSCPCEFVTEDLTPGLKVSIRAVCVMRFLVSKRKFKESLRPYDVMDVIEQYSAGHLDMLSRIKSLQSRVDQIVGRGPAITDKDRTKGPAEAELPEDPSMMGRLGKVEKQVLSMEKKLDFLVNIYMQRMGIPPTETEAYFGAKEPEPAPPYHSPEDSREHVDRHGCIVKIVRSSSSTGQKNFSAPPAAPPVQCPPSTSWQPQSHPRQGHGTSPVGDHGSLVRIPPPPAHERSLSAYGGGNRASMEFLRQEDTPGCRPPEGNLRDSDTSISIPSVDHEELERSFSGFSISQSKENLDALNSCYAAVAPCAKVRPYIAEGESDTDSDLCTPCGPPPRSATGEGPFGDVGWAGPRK
KCNQ2 + KCNQ3, sequence (O43525 whole entry): as the sequence (O43525 whole entry R227Q) above, with Q227R counted along it
Source text: as §3, §1, §2

[2] = system: KCNQ2 + KCNQ3 + KCNQ3 R1Q; conditions: KCNQ2 + KCNQ3 + KCNQ3 R1Q 1:0.5:0.5, CHO cells
Source text: as §3, §1, §2

[3] = system: KCNQ2 + KCNQ3 + KCNQ3 R2S; conditions: KCNQ2 + KCNQ3 + KCNQ3 R2S 1:0.5:0.5, CHO cells
Source text: as §3, §1, §2

[4] = system: KCNQ2 + KCNQ3 + KCNQ3 R2H; conditions: KCNQ2 + KCNQ3 + KCNQ3 R2H 1:0.5:0.5, CHO cells
Source text: as §3, §1, §2

KCNQ3, sequence (O43525 whole entry): as the sequence (O43525 whole entry R227Q) above, with Q227R counted along it

For `CC[N+](CC)(CC)CC` [TEA, tetraethylammonium], the “Blockade by TEA, % 0.3 mM” value (KCNQ3; 0.3 mM TEA) was 6.4 ± 1.8%, the “Blockade by TEA, % 3 mM” value (KCNQ3; 3 mM TEA) was 13.0 ± 3.4% and the “Blockade by TEA, % 30 mM” value (KCNQ3; 30 mM TEA) was 61.7 ± 5.7%. For the same molecule, the “Blockade by TEA, % 30 mM” value (KCNQ3 R1Q) was 61.1 ± 6.8%, the “Blockade by TEA, % 30 mM” value (KCNQ3 R2H) was 70.9 ± 7.3% and the “Blockade by TEA, % 30 mM” value (KCNQ3 R2C) was 58.6 ± 13%. For the same molecule, the “Blockade by TEA, % 30 mM” value (KCNQ3 R2S) was 66.1 ± 6.1%, the “Blockade by TEA, % 0.3 mM” value ([1]; 0.3 mM TEA) was 14.0 ± 6.2% and the “Blockade by TEA, % 3 mM” value ([1]; 3 mM TEA) was 47.1 ± 9.9%. The “Blockade by TEA, % 30 mM” value ([1]; 30 mM TEA) was 77.0 ± 7.3%, the “Blockade by TEA, % 0.3 mM” value (KCNQ2 + KCNQ3; 0.3 mM TEA) was 15.6 ± 3.1% and the “Blockade by TEA, % 3 mM” value (KCNQ2 + KCNQ3; 3 mM TEA) was 50.5 ± 3.1%. The “Blockade by TEA, % 30 mM” value (KCNQ2 + KCNQ3; 30 mM TEA) was 78.8 ± 5.6%, the “Blockade by TEA, % 0.3 mM” value ([2]; 0.3 mM TEA) was 19.3 ± 2.0% and the “Blockade by TEA, % 3 mM” value ([2]; 3 mM TEA) was 44.1 ± 4.3%. For the same molecule, the “Blockade by TEA, % 30 mM” value ([2]; 30 mM TEA) was 85.3 ± 2.1%, the “Blockade by TEA, % 0.3 mM” value ([3]; 0.3 mM TEA) was 12.9 ± 2.3% and the “Blockade by TEA, % 3 mM” value ([3]; 3 mM TEA) was 43.6 ± 8.2%. For the same molecule, the “Blockade by TEA, % 30 mM” value ([3]; 30 mM TEA) was 80.1 ± 6.5%, the “Blockade by TEA, % 0.3 mM” value ([4]; 0.3 mM TEA) was 20.8 ± 3.1% and the “Blockade by TEA, % 3 mM” value ([4]; 3 mM TEA) was 47.4 ± 2.5%. The “Blockade by TEA, % 30 mM” value ([4]; 30 mM TEA) was 78.8 ± 3.2%.
